Values joined by “and” are separate entries in the source; they are usually repeats but may differ in a detail not shown here. Equal values may be shown once.
How the values were obtained:
wild-type EGFR = target: T1, wild-type EGFR (Homo sapiens, UniProt P00533); assay: In vitro EGFR inhibition assay, wild type; assay type: biochemical; details: read-out: EGFR^WT IC50
T1 construct: purchased AssayQuant Technologies, Inc. (Marlboro, MA, USA)

[1] = tested on: LPS-induced IL-6 production in RAW 264.7 cells; assay: IL-6 production in LPS-activated RAW 264.7 cells (ELISA); assay type: cell-based; details: LPS-activated RAW 264.7 cells treated with 25 µM of the compound
[2] = tested on: LPS-induced TNF-α production in RAW 264.7 cells; assay: TNF-α production in LPS-activated RAW 264.7 cells (ELISA); assay type: cell-based; details: for TNF-α concentration: LPS-activated RAW 264.7 cells treated with 25 µM of the compound
K-562 = assay: NCI single dose screen, K-562; assay type: cell-based; details: Homo sapiens, K562; K-562, leukaemia; single dose 10^−5 M; read-out: growth inhibition percentage
Experimental: (§1) Screening of the anticancer activity of the newly synthesised compounds (6a, 6c, 6d, 6e, 6j, 6l, 6m, 6n, 6o, and 6p) was performed by the US National Cancer Institute (NCI) using 60 different human tumour cell lines in accordance with standard procedures formerly reported.
(§2) In vitro anticancer screening was carried out for the selected compounds at a single dose (10^−5 M) against 60 different human tumour cell lines of nine different cancer cell types: leukaemia, lung, colon, CNS, melanoma, ovarian, renal, prostate, and breast cancers.

SR = assay: NCI single dose screen, SR; assay type: cell-based; details: Homo sapiens, leukaemia, single dose 10^−5 M, read-out: growth inhibition percentage
Experimental: as §1, §2

HOP-92 = assay: NCI single dose screen, HOP-92; assay type: cell-based; details: Homo sapiens; HOP-92, non-small cell lung cancer; single dose 10^−5 M; read-out: growth inhibition percentage
Experimental: as §1, §2

NCI-H522 = assay: NCI single dose screen, NCI-H522; assay type: cell-based; details: Homo sapiens; NCI-H522, non-small cell lung cancer; single dose 10^−5 M; read-out: growth inhibition percentage
Experimental: as §1, §2

KM12 = assay: NCI single dose screen, KM12; assay type: cell-based; details: Homo sapiens; KM12, colon cancer; single dose 10^−5 M; read-out: growth inhibition percentage
Experimental: as §1, §2

SW-620 = assay: NCI single dose screen, SW-620; assay type: cell-based; details: Homo sapiens; SW-620, colon cancer; single dose 10^−5 M; read-out: growth inhibition percentage
Experimental: as §1, §2

SF-539 = assay: NCI single dose screen, SF-539; assay type: cell-based; details: Homo sapiens, read-out: growth inhibition percentage
Experimental: as §1, §2

SNB-75 = assay: NCI single dose screen, SNB-75; assay type: cell-based; details: Homo sapiens; SNB-75, CNS cancer; single dose 10^−5 M; read-out: growth inhibition percentage
Experimental: as §1, §2

U251 = assay: NCI single dose screen, U251; assay type: cell-based; details: Homo sapiens, U-251; U251, CNS cancer; single dose 10^−5 M; read-out: growth inhibition percentage
Experimental: as §1, §2

LOX IMVI = assay: NCI single dose screen, LOX IMVI; assay type: cell-based; details: Homo sapiens, melanoma, single dose 10^−5 M, read-out: growth inhibition percentage
Experimental: as §1, §2

M14 = assay: NCI single dose screen, M14; assay type: cell-based; details: Homo sapiens; M14, melanoma; single dose 10^−5 M; read-out: growth inhibition percentage
Experimental: as §1, §2

UACC-257 = assay: NCI single dose screen, UACC-257; assay type: cell-based; details: Homo sapiens; UACC-257, melanoma; single dose 10^−5 M; read-out: growth inhibition percentage
Experimental: as §1, §2

OVCAR-3 = assay: NCI single dose screen, OVCAR-3; assay type: cell-based; details: Homo sapiens; OVCAR-3, ovarian cancer; single dose 10^−5 M; read-out: growth inhibition percentage
Experimental: as §1, §2

OVCAR-8 = assay: NCI single dose screen, OVCAR-8; assay type: cell-based; details: Homo sapiens; OVCAR-8, ovarian cancer; single dose 10^−5 M; read-out: growth inhibition percentage
Experimental: as §1, §2

NCI/ADR-RES = assay: NCI single dose screen, NCI/ADR-RES; assay type: cell-based; details: Homo sapiens, ovarian cancer, single dose 10^−5 M, read-out: growth inhibition percentage
Experimental: as §1, §2

SK-OV-3 = assay: NCI single dose screen, SK-OV-3; assay type: cell-based; details: Homo sapiens; SK-OV-3, ovarian cancer; single dose 10^−5 M; read-out: growth inhibition percentage
Experimental: as §1, §2

CAKI-1 = assay: NCI single dose screen, CAKI-1; assay type: cell-based; details: Homo sapiens; CAKI-1, renal cancer; single dose 10^−5 M; read-out: growth inhibition percentage
Experimental: as §1, §2

SN12C = assay: NCI single dose screen, SN12C; assay type: cell-based; details: Homo sapiens, renal cancer, single dose 10^−5 M, read-out: growth inhibition percentage
Experimental: as §1, §2

UO-31 = assay: NCI single dose screen, UO-31; assay type: cell-based; details: Homo sapiens; UO-31, renal cancer; single dose 10^−5 M; read-out: growth inhibition percentage
Experimental: as §1, §2

DU-145 = assay: NCI single dose screen, DU-145; assay type: cell-based; details: Homo sapiens; DU-145, prostate cancer; single dose 10^−5 M; read-out: growth inhibition percentage
Experimental: as §1, §2

MDA-MB-231/ATCC = assay: NCI single dose screen, MDA-MB-231/ATCC; assay type: cell-based; details: Homo sapiens, breast cancer, single dose 10^−5 M, read-out: growth inhibition percentage
Experimental: as §1, §2

HS 578T = assay: NCI single dose screen, HS 578T; assay type: cell-based; details: Homo sapiens, breast cancer, single dose 10^−5 M, read-out: growth inhibition percentage
Experimental: as §1, §2

BT-549 = assay: NCI single dose screen, BT-549; assay type: cell-based; details: Homo sapiens; BT-549, breast cancer; single dose 10^−5 M; read-out: growth inhibition percentage
Experimental: as §1, §2

MDA-MB-468 = assay: NCI single dose screen, MDA-MB-468; assay type: cell-based; details: Homo sapiens; MDA-MB-468, breast cancer; single dose 10^−5 M; read-out: growth inhibition percentage
Experimental: as §1, §2

[3] = 25 µM, LPS-activated RAW 264.7 cells

T1 sequence (P00533 25-1210): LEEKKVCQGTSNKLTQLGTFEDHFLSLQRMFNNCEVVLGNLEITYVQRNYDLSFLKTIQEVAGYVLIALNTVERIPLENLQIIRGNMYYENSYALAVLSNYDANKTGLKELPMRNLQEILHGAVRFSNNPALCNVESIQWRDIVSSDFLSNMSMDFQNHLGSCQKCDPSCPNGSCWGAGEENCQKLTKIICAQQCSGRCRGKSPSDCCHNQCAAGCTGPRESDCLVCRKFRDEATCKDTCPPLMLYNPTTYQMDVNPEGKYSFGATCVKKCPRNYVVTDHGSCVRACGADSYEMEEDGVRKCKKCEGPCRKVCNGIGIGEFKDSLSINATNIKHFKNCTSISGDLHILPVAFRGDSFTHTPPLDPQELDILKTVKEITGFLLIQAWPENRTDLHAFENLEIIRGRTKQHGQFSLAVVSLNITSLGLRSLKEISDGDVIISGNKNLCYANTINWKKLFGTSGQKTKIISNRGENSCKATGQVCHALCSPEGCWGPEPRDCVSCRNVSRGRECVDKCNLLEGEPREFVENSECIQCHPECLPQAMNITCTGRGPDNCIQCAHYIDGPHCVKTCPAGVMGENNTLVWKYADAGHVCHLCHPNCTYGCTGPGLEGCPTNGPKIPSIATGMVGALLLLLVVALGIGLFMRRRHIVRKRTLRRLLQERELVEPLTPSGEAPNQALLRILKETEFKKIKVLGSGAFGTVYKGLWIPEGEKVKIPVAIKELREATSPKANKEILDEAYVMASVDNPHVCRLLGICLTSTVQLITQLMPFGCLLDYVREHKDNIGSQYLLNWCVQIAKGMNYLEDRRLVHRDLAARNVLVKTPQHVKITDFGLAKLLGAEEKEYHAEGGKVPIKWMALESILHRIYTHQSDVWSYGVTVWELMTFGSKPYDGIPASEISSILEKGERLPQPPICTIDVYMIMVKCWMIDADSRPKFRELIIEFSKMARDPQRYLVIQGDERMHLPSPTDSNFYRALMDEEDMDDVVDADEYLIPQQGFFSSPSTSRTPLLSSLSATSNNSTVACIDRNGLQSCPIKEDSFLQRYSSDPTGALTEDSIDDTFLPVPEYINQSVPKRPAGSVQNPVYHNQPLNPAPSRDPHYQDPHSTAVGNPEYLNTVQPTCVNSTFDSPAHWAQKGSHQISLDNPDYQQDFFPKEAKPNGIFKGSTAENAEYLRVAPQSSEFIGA

CN1c2ccccc2C(=O)N(NC(=O)Nc2ccc(F)cc2)C1c1ccccc1 (stereo not drawn) [Compound 6m, 1-(4-Fluorophenyl)-3-(1-methyl-4-oxo-2-phenyl-1,4-dihydroquinazolin-3(2H)-yl)urea]
IC50 (wild-type EGFR): > 100 µM
IL-6 concentration [1]: 290.7 ± 5.5 pg/mL
TNF-α concentration [2]: 935.60 ± 3.85 pg/mL
inhibition at 10 µM (K-562): < 10%
inhibition at 10 µM (SR): < 10%
inhibition at 10 µM (HOP-92): < 10%
inhibition at 10 µM (NCI-H522): < 10%
inhibition at 10 µM (KM12): < 10%
inhibition at 10 µM (SW-620): < 10%
inhibition at 10 µM (SF-539): < 10%
inhibition at 10 µM (SNB-75): < 10%
inhibition at 10 µM (U251): < 10%
inhibition at 10 µM (LOX IMVI): 21.9%
inhibition at 10 µM (M14): 18.9%
inhibition at 10 µM (UACC-257): < 10%
inhibition at 10 µM (OVCAR-3): 20.5%
inhibition at 10 µM (OVCAR-8): < 10%
inhibition at 10 µM (NCI/ADR-RES): 16.8%
inhibition at 10 µM (SK-OV-3): < 10%
inhibition at 10 µM (CAKI-1): < 10%
inhibition at 10 µM (SN12C): < 10%
inhibition at 10 µM (UO-31): 40.1%
inhibition at 10 µM (DU-145): < 10%
inhibition at 10 µM (MDA-MB-231/ATCC): 23%
inhibition at 10 µM (HS 578T): < 10%
inhibition at 10 µM (BT-549): < 10%
inhibition at 10 µM (MDA-MB-468): < 10%
melting point: 220 to 222 °C

CN1c2ccccc2C(=O)N(NC(=O)Nc2ccc(F)cc2)C1c1ccc(F)cc1 (stereo not drawn) [Compound 6n, 1-(4-Fluorophenyl)-3-(2–(4-fluorophenyl)-1-methyl-4-oxo-1,4-dihydroquinazolin-3(2H)-yl)urea]
IC50 (wild-type EGFR): > 100 µM
IL-6 concentration [1]: 535.3 ± 15.25 pg/mL
TNF-α concentration [2]: 1981.00 ± 209.9 pg/mL
inhibition at 10 µM (K-562): 22.1%
inhibition at 10 µM (SR): 14.4%
inhibition at 10 µM (HOP-92): < 10%
inhibition at 10 µM (NCI-H522): < 10%
inhibition at 10 µM (KM12): 15.4%
inhibition at 10 µM (SW-620): < 10%
inhibition at 10 µM (SF-539): 10.1%
inhibition at 10 µM (SNB-75): 28.1%
inhibition at 10 µM (U251): < 10%
inhibition at 10 µM (LOX IMVI): 31.6%
inhibition at 10 µM (M14): 23.2%
inhibition at 10 µM (UACC-257): < 10%
inhibition at 10 µM (OVCAR-3): 41.9%
inhibition at 10 µM (OVCAR-8): < 10%
inhibition at 10 µM (NCI/ADR-RES): 23.2%
inhibition at 10 µM (SK-OV-3): 22.9%
inhibition at 10 µM (CAKI-1): 25.1%
inhibition at 10 µM (SN12C): < 10%
inhibition at 10 µM (UO-31): 57.1%
inhibition at 10 µM (DU-145): < 10%
inhibition at 10 µM (MDA-MB-231/ATCC): 29.8%
inhibition at 10 µM (HS 578T): 19.7%
inhibition at 10 µM (BT-549): < 10%
inhibition at 10 µM (MDA-MB-468): < 10%
melting point: 214 to 216 °C

CN1c2ccccc2C(=O)N(NC(=O)Nc2ccc(F)cc2)C1c1ccc([N+](=O)[O-])cc1 (stereo not drawn) [Compound 6o, 1-(4-Fluorophenyl)-3–(1-methyl-2-(4-nitrophenyl)-4-oxo-1,4-dihydroquinazolin-3(2H)-yl)urea]
IC50 (wild-type EGFR): 52.4 ± 1.25 µM
IL-6 concentration [1]: 37.23 pg/mL and 37.23 ± 1.19 pg/mL
TNF-α level, times lower than celecoxib [2, 3]: ~10 times
TNF-α level, times lower than diclofenac [2, 3]: ~17 times
TNF-α concentration [2]: 39.37 pg/mL and 39.37 ± 1.21 pg/mL
inhibition at 10 µM (K-562): 17.5%
inhibition at 10 µM (SR): 12.2%
inhibition at 10 µM (HOP-92): < 10%
inhibition at 10 µM (NCI-H522): < 10%
inhibition at 10 µM (KM12): < 10%
inhibition at 10 µM (SW-620): < 10%
inhibition at 10 µM (SF-539): < 10%
inhibition at 10 µM (SNB-75): < 10%
inhibition at 10 µM (U251): < 10%
inhibition at 10 µM (LOX IMVI): 29.5%
inhibition at 10 µM (M14): 18%
inhibition at 10 µM (UACC-257): < 10%
inhibition at 10 µM (OVCAR-3): 22.7%
inhibition at 10 µM (OVCAR-8): < 10%
inhibition at 10 µM (NCI/ADR-RES): < 10%
inhibition at 10 µM (SK-OV-3): < 10%
inhibition at 10 µM (CAKI-1): 18.4%
inhibition at 10 µM (SN12C): < 10%
inhibition at 10 µM (UO-31): 41.3%
inhibition at 10 µM (DU-145): < 10%
inhibition at 10 µM (MDA-MB-231/ATCC): 22.5%
inhibition at 10 µM (HS 578T): < 10%
inhibition at 10 µM (BT-549): < 10%
inhibition at 10 µM (MDA-MB-468): < 10%
melting point: 250 to 252 °C

COc1ccc(C2N(NC(=O)Nc3ccc(F)cc3)C(=O)c3ccccc3N2C)cc1 (stereo not drawn) [Compound 6p, 1-(4-Fluorophenyl)-3-(2–(4-methoxyphenyl)-1-methyl-4-oxo-1,4-dihydroquinazolin-3(2H)-yl)urea]
IC50 (wild-type EGFR): > 100 µM
IL-6 concentration [1]: 237.2 ± 3.19 pg/mL
TNF-α concentration [2]: 1549.00 ± 20.25 pg/mL
inhibition at 10 µM (K-562): < 10%
inhibition at 10 µM (SR): < 10%
inhibition at 10 µM (HOP-92): < 10%
inhibition at 10 µM (NCI-H522): < 10%
inhibition at 10 µM (KM12): < 10%
inhibition at 10 µM (SW-620): < 10%
inhibition at 10 µM (SF-539): < 10%
inhibition at 10 µM (SNB-75): < 10%
inhibition at 10 µM (U251): < 10%
inhibition at 10 µM (LOX IMVI): 18.1%
inhibition at 10 µM (M14): 11.8%
inhibition at 10 µM (UACC-257): < 10%
inhibition at 10 µM (OVCAR-3): 17.1%
inhibition at 10 µM (OVCAR-8): < 10%
inhibition at 10 µM (NCI/ADR-RES): < 10%
inhibition at 10 µM (SK-OV-3): < 10%
inhibition at 10 µM (CAKI-1): < 10%
inhibition at 10 µM (SN12C): < 10%
inhibition at 10 µM (UO-31): 42.6%
inhibition at 10 µM (DU-145): < 10%
inhibition at 10 µM (MDA-MB-231/ATCC): 12.6%
inhibition at 10 µM (HS 578T): < 10%
inhibition at 10 µM (BT-549): < 10%
inhibition at 10 µM (MDA-MB-468): < 10%
melting point: 224 to 226 °C

Source: PMC10114980, “Triple targeting of mutant EGFR^L858R/T790M, COX-2, and 15-LOX: design and synthesis of novel quinazolinone tethered phenyl urea derivatives for anti-inflammatory and anticancer evaluation” (Journal of Enzyme Inhibition and Medicinal Chemistry, 2023)
